Test results taken from patent publication US10526291B2, “Potent dual BRD4-kinase inhibitors as cancer therapeutics” (H. Lee Moffitt Cancer Center and Research Institute, Inc., priority 2014, dated 2020).
Converted amounts (≈) assume the structure as drawn. “And” between values parts separate entries of the source, which are not always exact repeats. Equal entries are not always repeated. Where two headings read alike, the source gives them in different places. Values belong to the molecule of their own block, whether it stands above or below them.

Assays:
JAK2 = target: T1, JAK2 (Homo sapiens, UniProt O60674); experiment: JAK2 IC50 (RB, commercial kinase panel); assay type: biochemical
T1 construct: purchased
T1 sequence (O60674 whole entry): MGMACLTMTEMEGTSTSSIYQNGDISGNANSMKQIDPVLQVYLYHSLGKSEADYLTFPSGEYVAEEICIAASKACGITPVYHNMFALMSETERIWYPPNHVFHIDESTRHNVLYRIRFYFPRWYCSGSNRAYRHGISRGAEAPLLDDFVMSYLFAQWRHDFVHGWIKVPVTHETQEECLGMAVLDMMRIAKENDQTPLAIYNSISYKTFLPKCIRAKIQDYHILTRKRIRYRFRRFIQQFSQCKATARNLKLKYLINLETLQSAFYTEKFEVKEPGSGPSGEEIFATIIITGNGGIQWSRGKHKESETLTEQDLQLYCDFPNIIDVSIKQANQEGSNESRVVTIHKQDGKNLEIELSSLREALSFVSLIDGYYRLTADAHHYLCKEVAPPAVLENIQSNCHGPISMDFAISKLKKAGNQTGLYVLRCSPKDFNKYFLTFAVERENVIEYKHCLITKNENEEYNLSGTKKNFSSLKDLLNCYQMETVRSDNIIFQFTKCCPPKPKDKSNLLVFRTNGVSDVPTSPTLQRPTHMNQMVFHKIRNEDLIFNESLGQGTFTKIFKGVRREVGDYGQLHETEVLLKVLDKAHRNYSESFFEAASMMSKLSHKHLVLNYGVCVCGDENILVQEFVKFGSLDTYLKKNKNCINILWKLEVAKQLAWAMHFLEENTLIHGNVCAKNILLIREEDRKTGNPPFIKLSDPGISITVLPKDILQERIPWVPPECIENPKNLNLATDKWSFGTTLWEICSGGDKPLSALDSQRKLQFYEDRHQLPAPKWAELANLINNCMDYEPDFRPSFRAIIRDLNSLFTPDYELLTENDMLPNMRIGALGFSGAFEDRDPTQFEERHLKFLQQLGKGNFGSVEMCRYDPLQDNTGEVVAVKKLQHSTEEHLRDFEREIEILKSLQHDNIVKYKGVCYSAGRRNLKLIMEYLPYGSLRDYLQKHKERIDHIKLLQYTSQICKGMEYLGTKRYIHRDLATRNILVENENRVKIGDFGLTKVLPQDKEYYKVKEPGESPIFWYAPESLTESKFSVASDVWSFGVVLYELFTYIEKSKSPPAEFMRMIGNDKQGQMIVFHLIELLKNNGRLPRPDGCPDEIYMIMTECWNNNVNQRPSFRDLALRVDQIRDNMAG

BRD4 [1] = target: T2, BRD4 (Homo sapiens, UniProt O60885); experiment: Differential Scanning Fluorimetry (DSF), stability of BRD4 upon ligand binding; details: for ΔTm at 4 µM / DSF ΔTm (° C.): 100 μM protein, 4 μM compound and 2% DMSO; for IC50: estimated
Experimental: (§1) DSF=Differential Scanning Fluorimetry; provides a measure of the increased stability of BRD4 upon ligand binding The DSF experiment was run at 100 μM protein, 4 μM compound and 2% DMSO.

HEK293 = HEK293 cell IC50; assay type: cell-based; details: Homo sapiens
MV4-11 AML cells = experiment: MV-4-11 cell IC50 (antiproliferative activity); assay type: cell-based; details: Homo sapiens
Experimental: Cellular activity of promising compounds is assessed using MM.1S and MV4-11 AML cells using c-Myc levels as biomarker (6-12 hr treatment) and antiproliferative activity (48-72 hr treatment) as described (Ciceri et al., Dual kinase-bromodomain inhibitors for rationally designed polypharmacology. Nat Chem Biol 2014).

UKE-1 = UKE-1 cell IC50; assay type: cell-based; details: UKE1
NCI-H2052 = NCI-H2052 cell IC50; assay type: cell-based; details: Homo sapiens
BRDT-1 = target: T3, BRDT-1 (Homo sapiens, UniProt Q58F21); experiment: BRDT-1 IC50; assay type: binding
T3 construct: BRDT-1; purchased

BRD4-1 = target: T4, BRD4-1 (Homo sapiens, UniProt O60885); experiment: BRD4-1 IC50; assay type: binding
T4 construct: BRD4-1; purchased

MM.1S cells = experiment: MM.1S cell survival, MTT assay; assay type: cell-based; details: Homo sapiens, MM1.S, 72 h, 72 hours compound exposure
[2] = Precipitation in DSF buffer; assay type: physicochemical
Experimental: as §1

c-Myc in MM.1S cells = details: literature; cited from earlier work
Solubility in PBS buffer = assay type: physicochemical
SAOS-2 = SAOS-2 cell IC50; assay type: cell-based; details: Homo sapiens
BRD3 = target: T5, BRD3 (Homo sapiens, UniProt Q15059); experiment: BRD3 IC50 (RB, commercial BRD panel); assay type: binding
T5 construct: purchased
T5 sequence (Q15059 whole entry): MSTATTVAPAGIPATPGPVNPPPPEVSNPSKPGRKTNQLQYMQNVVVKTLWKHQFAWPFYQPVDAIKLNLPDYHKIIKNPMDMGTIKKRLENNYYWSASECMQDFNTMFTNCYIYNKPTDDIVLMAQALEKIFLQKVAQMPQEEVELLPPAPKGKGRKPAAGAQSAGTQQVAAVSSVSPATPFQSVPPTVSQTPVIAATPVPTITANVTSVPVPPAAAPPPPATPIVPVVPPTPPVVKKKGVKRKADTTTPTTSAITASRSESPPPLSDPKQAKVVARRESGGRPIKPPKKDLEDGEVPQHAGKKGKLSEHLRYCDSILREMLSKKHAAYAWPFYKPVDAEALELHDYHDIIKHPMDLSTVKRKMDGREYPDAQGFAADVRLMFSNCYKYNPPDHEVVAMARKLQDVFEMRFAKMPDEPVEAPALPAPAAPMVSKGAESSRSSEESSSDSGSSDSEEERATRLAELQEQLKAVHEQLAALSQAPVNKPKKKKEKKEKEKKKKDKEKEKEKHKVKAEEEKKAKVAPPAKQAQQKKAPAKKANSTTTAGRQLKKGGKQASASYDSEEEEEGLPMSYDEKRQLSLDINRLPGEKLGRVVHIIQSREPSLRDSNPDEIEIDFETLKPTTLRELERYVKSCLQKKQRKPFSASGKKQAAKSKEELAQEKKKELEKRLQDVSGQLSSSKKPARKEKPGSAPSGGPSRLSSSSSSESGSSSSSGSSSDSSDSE

FLT3 = target: T6, FLT3 (Homo sapiens, UniProt P36888); experiment: FLT3 IC50 (RB, commercial kinase panel); assay type: biochemical
T6 construct: purchased
T6 sequence (P36888 27-993): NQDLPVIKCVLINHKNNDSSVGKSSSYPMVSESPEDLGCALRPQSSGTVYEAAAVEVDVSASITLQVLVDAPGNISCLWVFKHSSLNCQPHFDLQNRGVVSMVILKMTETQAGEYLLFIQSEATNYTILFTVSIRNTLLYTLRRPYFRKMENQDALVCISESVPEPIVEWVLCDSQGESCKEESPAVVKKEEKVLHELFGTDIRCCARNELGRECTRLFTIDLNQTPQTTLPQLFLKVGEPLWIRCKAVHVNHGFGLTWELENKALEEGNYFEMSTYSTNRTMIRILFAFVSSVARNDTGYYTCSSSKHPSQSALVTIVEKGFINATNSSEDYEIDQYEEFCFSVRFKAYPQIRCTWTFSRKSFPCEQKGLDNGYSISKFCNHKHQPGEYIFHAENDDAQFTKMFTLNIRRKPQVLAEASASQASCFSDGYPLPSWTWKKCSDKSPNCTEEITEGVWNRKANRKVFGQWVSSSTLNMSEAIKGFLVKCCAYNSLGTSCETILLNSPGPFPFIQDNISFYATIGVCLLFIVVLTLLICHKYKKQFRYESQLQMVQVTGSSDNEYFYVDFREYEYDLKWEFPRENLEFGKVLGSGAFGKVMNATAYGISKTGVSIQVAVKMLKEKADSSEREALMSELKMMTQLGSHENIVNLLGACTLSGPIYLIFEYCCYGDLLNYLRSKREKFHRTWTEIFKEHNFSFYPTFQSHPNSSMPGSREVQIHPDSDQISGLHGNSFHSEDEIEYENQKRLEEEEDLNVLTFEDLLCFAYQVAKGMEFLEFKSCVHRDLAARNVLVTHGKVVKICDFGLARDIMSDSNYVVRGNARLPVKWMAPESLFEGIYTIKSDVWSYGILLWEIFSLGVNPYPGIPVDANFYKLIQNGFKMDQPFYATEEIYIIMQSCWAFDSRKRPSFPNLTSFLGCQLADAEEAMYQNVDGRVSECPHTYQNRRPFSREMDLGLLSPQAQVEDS

BRD4 [3] = target: T2, BRD4; experiment: BRD4 IC50 (RB, commercial BRD panel); assay type: binding; details: read-out: BRD4 IC50
BRD2 = target: T7, BRD2 (Homo sapiens, UniProt P25440); experiment: BRD2 IC50 (RB, commercial BRD panel); assay type: binding
T7 construct: purchased
T7 sequence (P25440 whole entry): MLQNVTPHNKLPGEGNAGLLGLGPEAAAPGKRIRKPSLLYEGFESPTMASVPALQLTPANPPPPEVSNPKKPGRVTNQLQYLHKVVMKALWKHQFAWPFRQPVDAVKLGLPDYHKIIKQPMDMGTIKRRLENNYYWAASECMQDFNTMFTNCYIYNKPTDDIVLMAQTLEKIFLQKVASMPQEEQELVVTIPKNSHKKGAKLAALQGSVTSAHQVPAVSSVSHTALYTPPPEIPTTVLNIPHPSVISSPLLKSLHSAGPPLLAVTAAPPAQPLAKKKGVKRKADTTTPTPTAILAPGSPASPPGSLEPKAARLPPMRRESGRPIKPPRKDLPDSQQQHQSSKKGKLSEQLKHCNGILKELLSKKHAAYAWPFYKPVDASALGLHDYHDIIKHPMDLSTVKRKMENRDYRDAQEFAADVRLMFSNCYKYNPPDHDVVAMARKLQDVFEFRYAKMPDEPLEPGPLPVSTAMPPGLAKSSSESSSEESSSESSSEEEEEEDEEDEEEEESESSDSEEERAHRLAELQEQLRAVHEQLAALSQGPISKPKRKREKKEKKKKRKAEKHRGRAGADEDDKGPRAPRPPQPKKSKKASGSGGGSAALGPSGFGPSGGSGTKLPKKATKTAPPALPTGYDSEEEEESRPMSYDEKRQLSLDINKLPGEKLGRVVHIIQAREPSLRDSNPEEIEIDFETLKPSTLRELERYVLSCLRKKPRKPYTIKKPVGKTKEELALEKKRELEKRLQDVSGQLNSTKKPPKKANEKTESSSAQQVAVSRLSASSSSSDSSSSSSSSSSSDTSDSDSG

BRDT = target: T8, BRDT (Homo sapiens, UniProt Q58F21); experiment: BRDT IC50 (RB, commercial BRD panel); assay type: binding
T8 construct: purchased

Compound: COc1cc(Nc2nc(Nc3ccc(N4CCN(C)CC4)cc3)nc(C)c2C)ccc1Cl
IC50 (JAK2): 14000 nM | ΔTm at 4 µM (BRD4 [1]): 4.1 ± 0.14 °C | IC50 (BRD4 [1]): 930 nM | IC50 (HEK293): 840 nM

Compound: Cc1cnc(Nc2ccc(C(=O)NC3CCN(C)CC3)cc2)nc1Nc1ccc(Cl)c(NS(=O)(=O)C(C)(C)C)c1
DSF ΔTm (° C.) (BRD4 [1]): 11 ± 0.12 11 ± 0.12 °C | ΔTm at 4 µM (BRD4 [1]): 11 ± 0.12 °C | IC50 (BRD4 [1]): 6.1 nM and 4.6 nM | IC50 (MV4-11 AML cells): 71 nM | IC50 (UKE-1): 1600 nM

Compound: Cc1cnc(Nc2ccc(C(=O)NC3CCN(C)CC3)c(F)c2)nc1Nc1ccc(Cl)c(NS(=O)(=O)C(C)(C)C)c1
ΔTm at 4 µM (BRD4 [1]): 12.5 ± 0.165 °C | IC50 (BRD4 [1]): 1.3 nM | IC50 (NCI-H2052): > 10000 nM | IC50 (MV4-11 AML cells): 38 nM | IC50 (UKE-1): 220 nM | IC50 (BRDT-1): 23 nM | IC50 (BRD4-1): 10 nM

Compound: CN1CCN(c2ccc(Nc3ncc(F)c(Nc4ccc(Cl)c(NS(=O)(=O)C(C)(C)C)c4)n3)cc2F)CC1
ΔTm at 4 µM (BRD4 [1]): 0.57 ± 0.124 °C | IC50 (BRD4 [1]): 16800 nM | IC50 (MM.1S cells): 160 nM | Precipitation in DSF buffer [2]: Precipitation observed in DSF buffer

Compound: CN1CCN(c2ccc(Nc3ncc(Cl)c(Nc4ccc(Cl)c(NS(=O)(=O)C(C)(C)C)c4)n3)cc2F)CC1
ΔTm at 4 µM (BRD4 [1]): 5.22 ± 0.065 °C | IC50 (BRD4 [1]): 835 nM | IC50 (MM.1S cells): 110 nM | Precipitation in DSF buffer [2]: Precipitation observed in DSF buffer

Compound: CC[C@@H]1C(=O)N(C)c2cnc(Nc3ccc(C(=O)NC4CCN(C)CC4)cc3OC)nc2N1C1CCCC1 [BI2536]
downregulation of c-Myc (c-Myc in MM.1S cells): strong downregulation of c-Myc

Compound: Cc1cnc(Nc2ccc(N3CCN(C)CC3)cc2)nc1Nc1cccc(S(=O)(=O)NC(C)(C)C)c1 [TG101209]
downregulation of c-Myc (c-Myc in MM.1S cells): strong downregulation of c-Myc

Compound: Cc1cnc(Nc2ccc(OCCN3CCCC3)cc2)nc1Nc1cccc(S(=O)(=O)NC(C)(C)C)c1 [TG101348]
downregulation of c-Myc (c-Myc in MM.1S cells): strong downregulation of c-Myc

The next lines start with results.

DSF ΔTm (° C.) (BRD4 [1]): 10 ± 0.11 10 ± 0.11 °C | ΔTm at 4 µM (BRD4 [1]): 10 ± 0.11 °C | IC50 (BRD4 [1]): 7.4 nM and 9.9 nM | IC50 (MV4-11 AML cells): 98 nM | IC50 (UKE-1): 470 nM
Compound: Cc1cnc(Nc2ccc(C3CCN(C)CC3)cc2)nc1Nc1ccc(Cl)c(NS(=O)(=O)C(C)(C)C)c1

ΔTm at 4 µM (BRD4 [1]): 2.46 ± 0.111 °C | IC50 (BRD4 [1]): 4950 nM | Precipitation in DSF buffer [2]: Precipitation interferes with the assay
Compound: Cc1cnc(Nc2ccc(N3CCN(C)CC3)c(C(F)(F)F)c2)nc1Nc1ccc(Cl)c(NS(=O)(=O)C(C)(C)C)c1

Solubility (Solubility in PBS buffer; PBS buffer (15% HPCD)): Solubility > 14.4 mg mg in 1 mL | Solubility (Solubility in PBS buffer; PBS buffer (~9.3% DMSO)): DMSO) = 0.416 mg mg in 1 mL | Solubility (Solubility in PBS buffer; aqueous with cosolvent or surfactant or cyclodextrin, PBS buffer (~9.3% DMSO), read-out: Solubility): 650 µM (≈ 354 µg/mL)
Compound: Cc1cnc(Nc2ccc(N3CCN(C)CC3)cc2)nc1Nc1ccc(Cl)c(NS(=O)(=O)C(C)(C)C)c1 [SG3-014B2.MSA]

IC50 (JAK2): 11.2 nM | ΔTm at 4 µM (BRD4 [1]): 9.57 ± 0.086 °C | IC50 (BRD4 [1]): 10 nM | IC50 (SAOS-2): 567 nM | IC50 (BRD3): 16.5 nM | IC50 (MV4-11 AML cells): 186 nM | IC50 (FLT3): 9.71 nM | IC50 (UKE-1): 512 nM | IC50 (BRD4 [3]): 4.04 nM | IC50 (BRD2): 81.4 nM | IC50 (BRDT): 27.8 nM
Compound: Cc1cnc(Nc2ccc(N3CCN(C)CC3)cc2)nc1Nc1ccc(Cl)c(NS(=O)(=O)C(C)(C)C)c1 [drawing 109]
IC50 (MM.1S cells): 74 nM
